# From patent publication US8835467B2, “SIR2 regulation” (Albert Einstein College of Medicine of Yeshiva University, priority 2003, dated 2014)
# Experiments:
# [1] = system: Sir2-dependent transcriptional silencing at telomeres; experiment: Telomeric reporter gene silencing, serial dilution spot assay; format: cell-based, yeast
# Protocol: The photographs were taken after 2 to 3 days incubation. […] Isogenic strains UCC4562 (DOT1) and UCC4554 (dot1Δ) (Singer et al., 1998) are shown in each panel (top and bottom rows, respectively). […] The phenotype of strain CCFY10028 (top row) is compared to an isogenic sir2 derivative (bottom row). The sir2 deletion strain was generated by PCR-mediated gene disruption using a Nat-MX selectable marker (Tong et al., 2004).
# The deletion strains were generated by PCR-mediated gene disruption using a Nat-MX selectable marker (Tong et al., 2004). Silencing at TEL-VR::URA3 is reported by survival on FOA-containing media and at HMR::TRP1 is detected by reduced growth on media lacking tryptophan.
# We examined the effect of isonicotinamide on the expression of reporter genes integrated at each of the chromosomal loci that are subject to Sir2-dependent transcriptional silencing. Silencing of a telomeric URA3 gene (TEL-VIIL-URA3) confers resistance to 5-fluoroorotic acid (5-FOA). […] In this strain, silencing is reduced by dispersion of the Sir proteins from the telomeres (van Leeuwen et al., 2002).
# [2] = system: Sir2-dependent transcriptional silencing at the rDNA locus; experiment: rDNA locus URA3 silencing on FOA-containing media; format: cell-based, yeast; conditions: RDN1::URA3 strain; 25 mM isonicotinamide
# Protocol: Ten-fold serial dilutions of yeast strains were spotted onto control (YPD) or selective media (vanLeeuwen and Gottschling, 2002). The photographs were taken after 2 to 3 days incubation. […] Isogenic strains UCC4562 (DOT1) and UCC4554 (dot1Δ) (Singer et al., 1998) are shown in each panel (top and bottom rows, respectively). […] The phenotype of strain CCFY10028 (top row) is compared to an isogenic sir2 derivative (bottom row). The sir2 deletion strain was generated by PCR-mediated gene disruption using a Nat-MX selectable marker (Tong et al., 2004).
# Sir2 also localizes to the nucleolus where it functions to propagate a specialized chromatin structure on the rDNA (Rusche at al., 2003). […] Thus, isonicotinamide increases the activity of Sir2 in vivo at all three types of silent loci.
smiles,measurement,setting,value
NC(=O)c1ccncc1 [Isonicotinamide],increase in colony growth on FOA-containing medium,"[1]; TEL-VIIL-URA3, DOT1 strain UCC4562, 25 mM isonicotinamide",~10 fold
same,enhanced silencing of telomeric reporter (growth on FOA),"[1]; TEL-VIIL-URA3, dot1Δ strain UCC4554, 25 mM isonicotinamide",> 10^3 fold
same,growth phenotype on FOA medium,"[1]; TEL-VIIL-URA3, 25 mM isonicotinamide added to medium with 5 mM nicotinamide",intermediate growth phenotype
same,increase in colony growth on FOA-containing medium,"[1]; TEL-VR-URA3, pnc1Δ strain, 25 mM isonicotinamide",> 10^4 fold
same,colony survival on non-selective medium,"[1]; YPD control medium, 25 mM isonicotinamide",no effect
same,silencing of ADE2 integrated at TEL-VR,[1]; data not shown,increased
same,effect on telomeric reporter gene,"[1]; npt1Δ strain, 25 mM isonicotinamide",enhances the expression of a telomeric reporter gene
same,silencing at the rDNA locus (resistance to FOA),[2],increases silencing at the rDNA locus
